Measured values: patent US9770446B2, “Piperidine urea derivatives” (MERCK PATENT GMBH, priority 2013, dated 2017)

Assays:
Tankyrase = assay: Cellular inhibition of Tankyrase: Axin2 level in DLD1 cells (Luminex); format: cell-based; conditions: 24 hours, Axin2 increase, read-out: EC50 [M] TNKS cellular assay
Protocol: Measurement of Cellular Inhibition of Tankyrase
Since Tankyrases have been described to modulate cellular level of Axin2 (Huang et al., 2009; Nature) the increase of Axin2 level is used as read-out for determination of cellular inhibition of Tankyrases in a Luminex based assay.
Cells of the colon carcinoma cell line DLD1 are plated in 96 well plates with 1.5×10^4 cells per well. Next day, cells are treated with a serial dilution of test compound in seven steps as triplicates with a final DMSO concentration of 0.3%. After 24 hours, cells are lysed in lysis buffer (20 mM Tris/HCl pH 8.0, 150 mM NaCl, 1% NP40, 10% Glycerol) and lysates are cleared by centrifugation through a 96 well filter plate (0.65 μm). Axin2 protein is isolated from cell lysates by incubation with a monoclonal anti-Axin2 antibody (R&D Systems #MAB6078) that is bound to fluorescent carboxybeads. Then, bound Axin2 is specifically detected with a polyclonal anti-Axin2 antibody (Cell Signaling #2151) and an appropriate PE-fluorescent secondary antibody. The amount of isolated Axin2 protein is determined in a Luminex^200 machine (Luminex Corporation) according to the manufacturer's instruction by counting 100 events per well. Inhibition of Tankyrase by test compounds results in higher levels of Axin2 which directly correlates with an increase of detectable fluorescence. As controls cells are treated with solvent alone (neutral control) and with a Tankyrase reference inhibitor IWR-2 (3E-06 M) which refers as control for maximum increase of Axin2. For analysis, the obtained data are normalized against the untreated solvent control and fitted for determination of the EC50 values using the Assay Explorer software (Accelrys).

[1] = target: T1, GST-tagged Tnks-1 (1023-1327 aa) (Homo sapiens, UniProt O95271); assay: TNKS1 activity ELISA (autoparsylation assay); format: biochemical
T1 construct: GST-tagged Tnks-1 (1023-1327 aa, prepared in-house); made in house
Protocol: (§1) Description of the TNKS1 and TNKS2 ELISA Assay
(§2) Biochemical Activity Testing of TNKS 1 and 2: Activity ELISA (Autoparsylation Assay)
(§3) For analysis of autoparsylation activity of TNKS 1 and 2 an activity ELISA iss performed: In the first step GST tagged TNKS is captured on a Glutathione coated plate. Then the activity assay with biotinylated NAD is performed in the absence/presence of the compounds. During the enzymatic reaction GST tagged TNKS transfers biotinylated ADP-ribose to itself from biotinylated NAD as co-substrate. For the detection streptavidin-HRP conjugate is added that binds to the biotinylated TNKS and is thereby captured to the plates. The amount of biotinylated resp. autoparsylated TNKS is detected with a luminescence substrate for HRP. The level of the luminescence signal correlates directly with the amount of autoparsylated TNKS and therefore with activity of TNKS.
(§4) The activity ELISA is performed in 384 well Glutathione coated microtiter plates (Express capture Glutathione coated plate, Biocat, Heidelberg, Germany). The plates are pre-equilibrated with PBS. Then the plates are incubated with 50 μl 20 ng/well GST-tagged Tnks-1 (1023-1327 aa, prepared in-house), respectively GST-tagged Tnks-2 (873-1166 aa, prepared in-house) in assay buffer (50 mM HEPES, 4 mM Mg-chloride, 0.05% Pluronic F-68, 2 mM DTT, pH 7.7) overnight at 4° C. The plates are washed 3 times with PBS-Tween-20. The wells are blocked by incubation at room temperature for 20 minutes with 50 μl blocking buffer (PBS, 0.05% Tween-20, 0.5% BSA). Afterwards the plates are washed 3 times with PBS-Tween-20. The enzymatic reaction is performed in 50 μl reaction solution (50 mM HEPES, 4 mM Mg-chloride, 0.05% Pluronic F-68, 1.4 mM DTT, 0.5% DMSO, pH 7.7) with 10 μM bio-NAD (Biolog, Life science Inst., Bremen, Germany) as co-substrate in the absence or presence of the test compound (10 dilution concentrations) for 1 hour at 30° C. The reaction is stopped by 3 times washing with PBS-Tween20. For the detection 50 μl of 20 ng/μl Streptavidin, HRP conjugate (MoBiTec, Göttingen, Germany) in PBS/0.05% Tween-20/0.01% BSA are added and the plates are incubated for 30 minutes at room temperature. After three times washing with PBS-Tween-20 50 μl of SuperSignal ELISA Femto Maximum sensitivity substrate solution (ThermoFisherScientific (Pierce), Bonn, Germany) are added. Following a 1 minute incubation at room temperature luminescence signals are measured with an Envision multimode reader (Perkin Elmer LAS Germany GmbH) at 700 nm. The full value used is the inhibitor-free reaction. The pharmacological zero value used is XAV-939 (Tocris) in a final concentration of 5 μM. The inhibitory values (IC50) are determined using either the program Symyx Assay Explorer® or Condosseo® from GeneData.

His-tagged Parp-1 = target: T2, His-tagged Parp-1 (Homo sapiens, UniProt P09874); assay: PARP-1 autoparsylation HTRF assay; format: biochemical
T2 construct: purchased Enzo Life Sciences GmbH, Lörrach, Germany
Excerpt: Description of the PARP1 Assay
Biochemical Activity Testing of PARP-1: Autoparsylation Assay
The autoparsylation assay is run in two steps: the enzymatic reaction in which His-tagged Parp-1 transfers biotinylated ADP-ribose/ADP-ribose to itself from biotinylated NAD/NAD as co-substrate and the detection reaction where a time resolved FRET between cryptate labelled anti-His antibody bound to the His tag of the enzyme and Xlent® labelled-streptavidin bound the biotin-parsylation residue is analysed. The autoparsylation activity is detectable directly via the increase in HTRF signal.
The autoparsylation assay is performed as 384-well HTRF® (Cisbio, Codolet, France) assay format in Greiner low volume nb 384-well microtiter plates. 35 nM His-tagged Parp-1 (human, recombinant, Enzo Life Sciences GmbH, Lörrach, Germany) and a mixture of 125 nM bio-NAD (Biolog, Life science Inst., Bremen, Germany) and 800 nM NAD as co-substrate are incubated in a total volume of 6 μl (100 mM Tris/HCl, 4 mM Mg-chloride, 0.01% IGEPAL® CA630, 1 mM DTT, 0.5% DMSO, pH 8, 13 ng/μl activated DNA (BPS Bioscience, San Diego, US)) in the absence or presence of the test compound (10 dilution concentrations) for 150 min at 23° C. The reaction is stopped by the addition of 4 μl of the Stop/detection solution (70 nM SA-Xlent® (Cisbio, Codolet, France), 2.5 nM Anti-His-K® (Eu-labelled anti-His, Cisbio, Codolet, France) in 50 mM HEPES, 400 mM KF, 0.1% BSA, 20 mM EDTA, pH 7.0). After 1 h incubation at room temperature the HTRF iss measured with an Envision multimode reader (Perkin Elmer LAS Germany GmbH) at excitation wavelength 340 nm (laser mode) and emission wavelengths 615 nm and 665 nm. The ratio of the emission signals is determined. The full value used is the inhibitor-free reaction. The pharmacological zero value used is Olaparib (LClabs, Woburn, US) in a final concentration of 1 μM. The inhibitory values (IC50) are determined using either the program Symyx Assay Explorer® or Condosseo® from GeneData.

[2] = target: T3, GST-tagged Tnks-2 (873-1166 aa) (Homo sapiens, UniProt Q9H2K2); assay: TNKS2 activity ELISA (autoparsylation assay); format: biochemical
T3 construct: GST-tagged Tnks-2 (873-1166 aa, prepared in-house); made in house
Protocol: as §1, §2, §3, §4

DLD-1-cancer cells = conditions: cited from earlier work
ρ-catenin = conditions: by increasing the levels of the AXIN1 and AXIN2 proteins; cited from earlier work

T2 sequence (P09874 whole entry): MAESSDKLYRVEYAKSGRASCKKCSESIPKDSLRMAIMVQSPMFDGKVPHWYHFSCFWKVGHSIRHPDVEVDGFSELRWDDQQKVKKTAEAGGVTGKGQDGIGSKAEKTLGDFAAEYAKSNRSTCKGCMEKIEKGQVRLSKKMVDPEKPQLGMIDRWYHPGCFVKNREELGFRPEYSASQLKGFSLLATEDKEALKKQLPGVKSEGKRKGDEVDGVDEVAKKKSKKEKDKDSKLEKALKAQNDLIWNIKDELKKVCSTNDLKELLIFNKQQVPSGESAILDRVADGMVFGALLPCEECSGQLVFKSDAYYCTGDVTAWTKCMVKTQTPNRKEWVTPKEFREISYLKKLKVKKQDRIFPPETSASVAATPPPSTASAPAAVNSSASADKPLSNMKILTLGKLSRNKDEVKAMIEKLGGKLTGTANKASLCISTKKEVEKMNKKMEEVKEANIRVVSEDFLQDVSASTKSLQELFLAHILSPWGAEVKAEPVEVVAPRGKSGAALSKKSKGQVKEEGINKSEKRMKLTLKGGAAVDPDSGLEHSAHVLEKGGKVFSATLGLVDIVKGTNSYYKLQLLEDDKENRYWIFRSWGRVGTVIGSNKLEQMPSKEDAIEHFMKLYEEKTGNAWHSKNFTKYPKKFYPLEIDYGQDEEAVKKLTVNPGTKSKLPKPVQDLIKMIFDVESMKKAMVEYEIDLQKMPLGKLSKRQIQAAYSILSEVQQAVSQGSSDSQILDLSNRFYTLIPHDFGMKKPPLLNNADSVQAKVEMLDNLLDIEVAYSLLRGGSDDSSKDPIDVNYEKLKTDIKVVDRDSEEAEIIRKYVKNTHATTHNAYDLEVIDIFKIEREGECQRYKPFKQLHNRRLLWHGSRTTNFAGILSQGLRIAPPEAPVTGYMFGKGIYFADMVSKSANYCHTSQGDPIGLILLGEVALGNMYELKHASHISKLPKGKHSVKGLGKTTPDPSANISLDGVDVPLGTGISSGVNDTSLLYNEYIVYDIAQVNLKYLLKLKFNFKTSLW
T1 sequence (O95271 1023-1327): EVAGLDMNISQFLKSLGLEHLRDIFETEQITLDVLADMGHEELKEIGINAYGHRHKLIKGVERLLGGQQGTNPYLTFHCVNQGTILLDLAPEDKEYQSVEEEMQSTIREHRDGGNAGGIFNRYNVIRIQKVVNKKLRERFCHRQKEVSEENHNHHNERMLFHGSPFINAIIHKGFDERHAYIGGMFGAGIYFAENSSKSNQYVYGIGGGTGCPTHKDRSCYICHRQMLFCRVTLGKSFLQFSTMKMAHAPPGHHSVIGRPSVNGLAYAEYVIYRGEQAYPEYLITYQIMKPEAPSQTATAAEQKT
T3 sequence (Q9H2K2 873-1166): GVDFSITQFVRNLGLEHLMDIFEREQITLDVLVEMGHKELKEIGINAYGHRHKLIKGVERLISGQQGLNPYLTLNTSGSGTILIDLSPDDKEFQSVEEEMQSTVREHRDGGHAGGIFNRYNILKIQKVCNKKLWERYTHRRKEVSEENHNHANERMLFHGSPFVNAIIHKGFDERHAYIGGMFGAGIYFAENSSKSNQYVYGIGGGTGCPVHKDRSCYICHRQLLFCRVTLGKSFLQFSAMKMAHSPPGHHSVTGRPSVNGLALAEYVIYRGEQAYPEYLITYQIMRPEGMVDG

| SMILES | EC50 (Tankyrase) [M] | IC50 [1] [nM] | IC50 (His-tagged Parp-1) [µM] | IC50 [2] [nM] | growth of DLD-1-cancer cells (DLD-1-cancer cells) | Wnt-stimulated accumulation of ρ-catenin (ρ-catenin) |
| --- | --- | --- | --- | --- | --- | --- |
| COCCn1cc(-c2ccc(N(C)C(=O)N3CCC(C(=O)c4ccc(OC)cc4)CC3)cc2)cn1 [Compound A31, 4-(4-methoxy-benzoyl)-piperidine-1-carboxylic acid {4-[1-(2-methoxy-ethyl)-1H-pyrazol-4-yl]-phenyl}-methyl-amide] | < 3e-07 | < 300 | 3 to 50 | < 300 | – | – |
| CCn1cc(-c2ccc(C(=O)C3CCN(C(=O)N(C)c4ccc(OC)cc4)CC3)cc2)cn1 [Compound A33, 4-[4-(1-ethyl-1H-pyrazol-4-yl)-benzoyl]-piperidine-1-carboxylic acid (4-methoxy-phenyl)-methyl-amide] | < 3e-07 | < 300 | 3 to 50 | < 300 | – | – |
| COc1ccc(N(C)C(=O)N2CCC(C(=O)c3ccc(-c4cnn(CCN5CCCC5)c4)cc3)CC2)cc1 [Compound A35, 4-{4-[1-(2-pyrrolidin-1-yl-ethyl)-1H-pyrazol-4-yl]-benzoyl}-piperidine-1-carboxylic acid (4-methoxy-phenyl)-methyl-amide] | < 3e-07 | < 300 | 3 to 50 | < 300 | – | – |
| Oc1nc(-c2ccc(C(F)(F)F)cc2)nc2c1CSCC2 [XAV939] | – | – | – | – | inhibits growth | blocked |
| COCCn1cc(-c2ccc(C(=O)C3CCN(C(=O)N(C)c4ccc(OC)cc4)CC3)cc2)cn1 [Compound A30, 4-{4-[1-(2-methoxy-ethyl)-1H-pyrazol-4-yl]-benzoyl}-piperidine-1-carboxylic acid (4-methoxy-phenyl)-methyl-amide] | < 3e-07 | < 300 | 3 to 50 | < 300 | – | – |
| CCOC(=O)CN(C(=O)N1CCC(C(=O)c2ccccc2)CC1)c1ccccc1 [Compound A39, [(4-benzoyl-piperidine-1-carbonyl)-phenyl-amino]-acetic acid ethyl ester] | 3e-07 to 3e-06 | < 300 | 3 to 50 | < 300 | – | – |
| CCn1cc(-c2ccc(N(C)C(=O)N3CCC(C(=O)c4ccc(OC)cc4)CC3)cc2)cn1 [Compound A34, 4-(4-methoxy-benzoyl)-piperidine-1-carboxylic acid [4-(1-ethyl-1H-pyrazol-4-yl)-phenyl]-methyl-amide] | < 3e-07 | < 300 | 3 to 50 | < 300 | – | – |
| COCCn1cc(-c2ccc(C(=O)C3CCN(C(=O)N(C)c4ccc(-c5cnn(CCOC)c5)cc4)CC3)cc2)cn1 [Compound A32, 4-{4-[1-(2-methoxy-ethyl)-1H-pyrazol-4-yl]-benzoyl}-piperidine-1-carboxylic acid {4-[1-(2-methoxy-ethyl)-1H-pyrazol-4-yl]-phenyl}-methyl-amide] | < 3e-07 | < 300 | 3 to 50 | < 300 | – | – |
| COc1ccc(C(=O)C2CCN(C(=O)N(C)c3ccc(-c4cnn(CCN5CCCC5)c4)cc3)CC2)cc1 [Compound A36, 4-(4-methoxy-benzoyl)-piperidine-1-carboxylic acid methyl-{4-[1-(2-pyrrolidin-1-yl-ethyl)-1H-pyrazol-4-yl]-phenyl}-amide] | < 3e-07 | < 300 | 3 to 50 | < 300 | – | – |
